The source of these data is publication PMC13013135, “[^99mTc]Tc-PSMA-HSG for PSMA-targeted Hybrid Surgical Guidance: a new addition to the PSMA-I&S/I&T family” (European Journal of Nuclear Medicine and Molecular Imaging, 2025).

Data set [1] has as its system PSMA expressing LNCaP cells. On the set-up: method as in PMID 27635024, PMID 30237214. As to conditions: 60 min, 37 °C, normalized to ([^125I]IBA)KuE; cited from earlier work.
Data set [2] has as its system PC3-Pip xenografts in NSG mice. Nature of the data set: Fluorescence imaging in mice with clinical-grade fluorescence endoscope. The format is in vivo, mouse. As to the method: Fluorescence imaging of PC3-Pip xenografts in NSG mice (2 h p.i. at a PSMA-HSG dose of 1 nmol and 6 h p.i. at a ligand dose of 0.1 nmol, respectively; n = 1 per compound and condition) was performed using a clinical-grade fluorescence laparoscopy set-up (KARL STORZ Endoskope GMBh & Co. KG). Cy5-based tumor imaging was performed using D-light P system and a prototype modified IMAGE 1 S light source with integrated Cy5 filter (both KARL STORZ Endoskope GMBh & Co. KG). Images were recorded using integrated KARL STORZ software and image processing was performed using custom MATLAB software that provided a signal intensity-based representation of the signal-to-background ratio (SBR; [45, 46]).
PC-3 PIP xenografts were established by subcutaneous injection of 5 × 10^6 PC3-PIP cells/mouse using 8–12-week-old male NSG mice (in-house breeding, Dpt. of Oncology, University of Lausanne) as previously described. Tumors reached a size of 4-8 mm in diameter after 5-6 days and were then immediately used for the fluorescence imaging studies.

The next data set deals with LNCaP cells. Nature of the data set: Fluorescence microscopy of ligand internalization. The format is cell-based, human. The conditions noted are these: 100 nM. As to the method: Competitive binding experiments (IC50) were carried out in accordance with an established protocol using PSMA-expressing LNCaP cells and ([^125I]I-BA)KuE as standard radioligand. Internalization kinetics of [^99mTc]Tc-PSMA-HSG (0.5 nM) were investigated in a dual tracer internalization assay using PSMA expressing LNCaP cells and ([^125I]I-BA)KuE (0.1 nM) as an internal reference. Non-specific binding/internalization was determined in the presence of 10 µM 2-PMPA. Furthermore, PSMA-HSG internalization into LNCaP cells was investigated using fluorescence microscopy (100 nM PSMA-HSG). Please see the Supplementary Material for experimental details.
Two days prior to the experiment, LNCaP cells (approximately 100.000 cells/well) were seeded on round glass coverslips placed in the bottoms of the wells of 24-well plates. After cell adhesion and expansion, the culture medium was removed by aspiration, and the cells were washed with HBSS (1% BSA). […]
Fluorescence images were acquired on a Zeiss Axio Observer Z1 inverted microscope using a Plan Apochromat 20x, N.A. 0.8, air, DIC objective or a Plan Apochromat 63x, N.A. 1.4, oil, DIC objective. […] Fluorescence illumination was provided by an X-Cite fluorescence lamp. […]

Another data set deals with PC3-Pip tumor slices. Nature of the data set: Confocal fluorescence imaging of excised tumor specimens. The class given is in vivo, mouse. The protocol: After in vivo imaging, the tumors (n = 1 per condition) were excised and cut into 2 mm slices. Prior to imaging, slices were placed on a 35-mm culture dish containing a glass insert (MatTek Co.). Fluorescence confocal imaging was then performed using a Leica SP8 WLL microscope (Leica Microsystems). For assessment of tracer uptake Cy5 settings were used; λex = 633 nm, λem = 650–700 nm. Images were processed using accompanying LASX software (Leica Application Software Suite 4.8).

Data set [3] in a line: Photophysical characterization. The format is physicochemical. The conditions noted are these: in a 5% human serum albumin solution. The protocol:
The determination of the quantum yield and molar extinction coefficient of PSMA-HSG were performed according to previously published procedures.
Of the free dye HOOC-(SO3)Cy5(SO3)-Methyl (Sulfo-Cy5), a 100 µM stock solution in PBS was prepared. From this, a dilution series comprising the following concentrations was prepared: 7.5 µM, 5 µM, 2.5 µM, 1 µM, 0.75 µM, 0.5 µM, 0.25 µM. Of these solutions, absorption spectra (n=3 per concentration) were recorded using a Shimadzu UV-1280 spectrometer (Shimadzu, Kyoto, Japan). The concentrations were plotted against the mean of the maximum absorbance per concentration. A trendline was fitted, with the regression coefficient x 10^6 representing the molar extinction coefficient (R^2 ≥ 0.9900) in M^-1.L^-1.cm^-1.
The brightness in (M^-1.L^-1.cm^-1) was calculated using the following formula:
Brightness =Quantum yield hybrid label*Molar extinction coefficient free dye

The target of a further data set is PSMA (Homo sapiens, UniProt Q04609). On the set-up: Five patients with a diagnosis of initial (n = 4) or biochemical recurrence of (n = 1) histologically proven prostate cancer; from tissue; host or cells: prostate cancer patients: primary tumour, lymph nodes, resected tissue sections; method as in PMID 27635024, PMID 30237214. The conditions noted are these: LNCaP cells, identical experimental conditions; cited from earlier work.
Chain of PSMA (Q04609 whole entry): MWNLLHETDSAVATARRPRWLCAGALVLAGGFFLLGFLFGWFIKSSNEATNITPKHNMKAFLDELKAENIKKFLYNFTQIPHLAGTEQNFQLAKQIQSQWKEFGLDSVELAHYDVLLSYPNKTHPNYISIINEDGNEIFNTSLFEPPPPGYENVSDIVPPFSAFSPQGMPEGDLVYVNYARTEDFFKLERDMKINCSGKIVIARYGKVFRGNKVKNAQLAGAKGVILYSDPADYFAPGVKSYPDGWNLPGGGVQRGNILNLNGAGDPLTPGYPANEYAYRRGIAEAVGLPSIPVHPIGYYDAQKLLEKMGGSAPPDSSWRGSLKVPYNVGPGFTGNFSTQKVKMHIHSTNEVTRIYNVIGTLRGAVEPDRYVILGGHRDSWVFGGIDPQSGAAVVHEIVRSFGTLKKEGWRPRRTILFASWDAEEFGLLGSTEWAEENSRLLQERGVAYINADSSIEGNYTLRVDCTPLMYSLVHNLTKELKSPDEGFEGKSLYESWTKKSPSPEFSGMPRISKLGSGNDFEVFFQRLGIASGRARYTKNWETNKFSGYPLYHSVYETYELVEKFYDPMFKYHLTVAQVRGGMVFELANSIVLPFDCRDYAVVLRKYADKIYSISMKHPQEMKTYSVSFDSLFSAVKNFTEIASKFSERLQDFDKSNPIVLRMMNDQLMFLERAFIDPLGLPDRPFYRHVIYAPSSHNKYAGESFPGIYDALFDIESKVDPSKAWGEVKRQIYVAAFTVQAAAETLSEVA

`O=C(O)CC[C@H](NC(=O)NC(CCCCNC(=O)c1ccc([125I])cc1)C(=O)O)C(=O)O` (stereo partly drawn) [([^125I]IBA)KuE]: the “internalization [% of reference]” value in data set [1] is 100 % of reference.

As to `CC(=O)SCC(=O)N[C@H](CO)C(=O)N[C@H](CO)C(=O)N[C@H](CO)C(=O)N[C@H](CCCCNC(=O)CCCCCN1/C(=C/C=C/C=C/C2=[N+](C)c3ccc(S(=O)(=O)[O-])cc3C2(C)C)C(C)(C)c2cc(S(=O)(=O)O)ccc21)C(=O)N[C@H](Cc1ccc(O)cc1)C(=O)N[C@H](Cc1ccc2ccccc2c1)C(=O)N[C@H](CCCCNC(=O)CCCCCCC(=O)NCCCC[C@H](NC(=O)N[C@@H](CCC(=O)O)C(=O)O)C(=O)O)C(=O)O` [PSMA-HSG], the “in vivo tumor fluorescence, Cy5 fluorescence endoscope” value in data set [2] (0.1 nmol, 6 h p.i.) is reported as “only a weak fluorescence signal”; in data set [2] (1 nmol, 2 h p.i.), “high relative PSMA-HSG fluorescence intensity”. Also, the “membrane binding, fluorescence microscopy” value in the data set on LNCaP cells (30 min, 4 °C) is “intense and PSMA-specific membrane staining”. The “internalization, fluorescence microscopy” value in the data set with LNCaP cells (60 min, 37 °C) is reported as “efficient ligand translocation into the cells”. Further, the “confocal fluorescence microscopy of tumor slices” value in the data set on PC3-Pip tumor slices (2 h p.i./1 nmol) is “strong and homogenous PSMA-HSG fluorescence”; in the data set on PC3-Pip tumor slices (6 h p.i./0.1 nmol (low dose/late timepoint)), “detectable, but weak fluorescence signal”. Further, the quantum yield in data set [3] is 26%.

Broadly, the IC50 is the concentration needed to halve the response being measured. In the case of “PSMA-I&S: non-fluorescent parent compound, unlabeled”, the IC50 in the data set with PSMA is 39.7 ± 1.2 nM.
